Patent USRE40793E1, “Bicyclic benzamides of 3-or 4-substituted 4-(aminomethyl)-piperidine derivatives” (Janssen Pharmaceutica, N.V., priority 1997, dated 2009)

Test system: conscious dogs
Assay: Gastric emptying of an acaloric liquid test meal delayed by administration of lidamidine, in conscious dogs
Type: in vivo, beagle dogs
Settings: compounds, conscious dog, Δt = t 70% compound minus t 70% solvent, relative to t 70% solvent; for change in vivo at 0.0025 mg/kg / change in vivo at 0.01 mg/kg: Canis lupus familiaris; for change in vivo at 0.0025 mg/kg: read-out: ΔT/T^b (acceleration of gastric emptying of a liquid meal delayed by lidamidine); for change in vivo at 0.01 mg/kg: read-out: ΔT/T^a (acceleration of gastric emptying of a liquid meal delayed by lidamidine); for change in vivo at 0.0025 mg/kg / ΔT/T^b (acceleration of gastric emptying of a liquid meal delayed by lidamidine): dose 0.0025 mg/kg; for change in vivo at 0.01 mg/kg / ΔT/T^a (acceleration of gastric emptying of a liquid meal delayed by lidamidine): dose 0.01 mg/kg
Text: C. Pharmacological Examples C.1. Gastric Emptying of an Acaloric Liquid Test Meal Delayed by Administration of Lidamidine, in Conscious Dogs
Female beagle dogs, weighing 7-14 kg, were trained to stand quietly in Pavlov frames. They were implanted with a gastric cannula under general anesthesia and aseptic precautions. After a medium laparatomy, an incision was made through the gastric wall in the longitudinal direction between the greater and the lesser curve, 2 cm above the nerves of Latarjet. The cannula was secured to the gastric wall by means of a double purse string suture and brought out via a stab wound at the left quadrant of the hypochondrium. Dogs were allowed a recovery period of at least two weeks. Experiments were started after a fasting period of 24 hours, during which water was available ad libitum. At the beginning of the experiment, the cannula was opened in order to remove any gastric juice or food remnants.
The stomach was cleansed with 40 to 50 ml lukewarm water. The test compound was administered I.V. (in a volume ≦3 ml via the vena cephalica), S.C. (in a volume ≦3 ml) or P.O. (in a volume of 1 ml/kg body weight, applied intragastrically via the cannula with a device that filled the lumen of the cannula: after injection of the test compound; 5 ml NaCl 0.9% was injected in order to correct for the dead space in the injection system). Immediately after administration of the test compound or its solvent, lidamidine (0.63 mg/kg was administered subcutaneously. 30 min later, the cannula was opened to determine the amount of fluid present in the stomach, promptly followed by reintroduction of the fluid. Then the test meal was administered via the cannula. This test meal consisted of 250 ml distilled water containing glucose (5 g/l) as a marker. The cannula remained closed for 30 min, whereafter the gastric contents were drained from the stomach to measure total volume (t=30 min). For later analysis 1 ml of the gastric contents was taken, promptly followed by reintroduction of the rest volume into the stomach. This sequence was repeated 4 times with 30 min intervals (t=60, 90, 120, 150 min).
In the 1 ml samples of the gastric contents, the glucose concentrations were measured on a Hitachi 717 automatic analyzer by the hexokinase method (Schmidt, 1961).
Curves were fitted to the measurement points (glucose versus time) using weighed non-linear regression analysis. Gastric emptying was quantified as the time needed to empty 70% of the meal (t 70%). The control emptying time was calculated as the mean t 70% of the last 5 solvent experiments of the same dog. Acceleration of delayed gastric emptying (Δt) was calculated as the time difference between t 70% compound and t 70% solvent. To correct for variations in emptying rate between dogs, Δt was expressed as % of t 70% solvent (Schuurkes et al. 1992)).

Molecule | change in vivo at 0.0025 mg/kg [%] | change in vivo at 0.01 mg/kg [%] | ΔT/T^b (acceleration of gastric emptying of a liquid meal delayed by lidamidine) | ΔT/T^a (acceleration of gastric emptying of a liquid meal delayed by lidamidine)
COCCCN1CC[C@@H](CNC(=O)c2cc(Cl)c(N)c3c2OCC3)[C@H](O)C1 (relative stereo) [Compound 3, trans-4-amino-5-chloro-2,3-dihydro-N-[[3-hydroxy-1-(3-methoxypropyl)-4-piperidinyl]methyl]-7-benzofurancarboxamide] | -51 | -73 | – | –
CCCCN1CC[C@@H](CNC(=O)c2cc(Cl)c(N)c3c2OCC3)[C@@H](O)C1 (racemic) [Compound 1] | – | – | −0.23 | −0.20
COCCCN1CC[C@@H](CNC(=O)c2cc(Cl)c(N)c3c2OC(C)(C)C3)[C@H](O)C1.O=C(O)C(=O)O (racemic) [Compound 37] | – | – | −0.41 | −0.62
Nc1c(Cl)cc(C(=O)NC[C@@H]2CCN(CCCO)C[C@H]2O)c2c1CCCO2.O.O (relative stereo) [Compound 74] | – | – | – | −0.51
CCCCN1CC[C@@H](CNC(=O)c2cc(Cl)c(N)c3c2OCC3)[C@H](OC)C1 (racemic) [Compound 29] | – | – | −0.32 | −0.51
COCCCN1CC[C@@H](CNC(=O)c2cc(Cl)c(N)c3c2OCC3)[C@H](OC)C1 (relative stereo) [Compound 30, trans-4-amino-5-chloro-2,3-dihydro-N-[[3-methoxy-1-(3-methoxypropyl)-4-piperidinyl]methyl]-7-benzofurancarboxamide] | -55 | -59 | – | –
CC(=O)CCCN1CC[C@@H](CNC(=O)c2cc(Cl)c(N)c3c2OC(C)(C)C3)[C@H](O)C1 (racemic) [Compound 49] | – | – | −0.19 | −0.28
CC(=O)CCCN1CC[C@@H](CNC(=O)c2cc(Cl)c(N)c3c2OCCO3)[C@@H](O)C1 (relative stereo) [Compound 58] | – | – | −0.20 | 0.09
COCCCN1CCC(O)(CNC(=O)c2cc(Cl)c(N)c3c2OC(C)(C)C3)CC1 [Compound 86] | – | – | −0.33 | −0.47
CC(=O)CCCN1CCC(O)(CNC(=O)c2cc(Cl)c(N)c3c2OC(C)(C)C3)CC1 [Compound 93] | – | – | – | −0.03
CS(=O)(=O)NCCN1CC[C@@H](CNC(=O)c2cc(Cl)c(N)c3c2OCC3)[C@H](O)C1 (racemic) [Compound 20] | – | – | −0.20 | −0.28
CCCCN1CC[C@@H](CNC(=O)c2cc(Cl)c(N)c3c2OCCC3)[C@H](O)C1 (relative stereo) [Compound 78, trans-5-amino-N-[(1-butyl-3-hydroxy-4-piperidinyl)methyl]-6-chloro-3,4-dihydro-2H-1-benzopyran-8-carboxamide] | -33 | -50 | – | –
CC(=O)CCCN1CC[C@@H](CNC(=O)c2cc(Cl)c(N)c3c2OCCO3)[C@H](O)C1.O (relative stereo) [Compound 59] | – | – | −0.15 | −0.13
CO[C@@H]1CN(CCCC(C)=O)CC[C@H]1CNC(=O)c1cc(Cl)c(N)c2c1OC(C)(C)C2.O=C(O)C(=O)O (relative stereo) [Compound 52] | – | – | – | −0.18
(cis)-4-amino-5-chloro-2,3-dihydro-N-[[3-hydroxy-1-[3-(2-methyl-1,3-dioxolan-2-yl)propyl-]4-piperidinyl]methyl]-7-benzofurancarboxamide [Compound 7] | – | – | −0.07 | 0.11
CO[C@@H]1CN(CCCC(C)=O)CC[C@H]1CNC(=O)c1cc(Cl)c(N)c2c1OCC2 (relative stereo) [Compound 28, trans-4-amino-5-chloro-2,3-dihydro-N-[[3-methoxy-1-(4-oxopentyl)-4-piperidinyl]methyl]-7-benzofurancarboxamide] | -42 | -56 | – | –
CCCCN1CC[C@@H](CNC(=O)c2cc(Cl)c(N)c3c2OCCCO3)[C@H](O)C1.Cl (relative stereo) [Compound 65] | – | – | – | −0.07
CC(C)OCCCN1CC[C@@H](CNC(=O)c2cc(Cl)c(N)c3c2OC(C)(C)C3)[C@H](O)C1.O=C(O)/C=C\C(=O)O (racemic) [Compound 42] | – | – | – | −0.12
CC(=O)CCCN1CC[C@@H](CNC(=O)c2cc(Cl)c(N)c3c2OCC3)[C@H](O)C1 (relative stereo) [Compound 5, trans-4-amino-5-chloro-2,3-dihydro-N-[[3-hydroxy-1-(4-oxopentyl)-4-piperidinyl]methyl]-7-benzofurancarboxamide] | -57 | -36 | – | –
CCCCN1CC[C@@H](CNC(=O)c2cc(Cl)c(N)c3c2OC(C)(C)C3)[C@H](OC)C1.O=C(O)C(=O)O (relative stereo) [Compound 51] | – | – | – | −0.45
CCCCN1CC[C@@H](CNC(=O)c2cc(Cl)c(N)c3c2OC(C)(C)C3)[C@H](O)C1 (racemic) [Compound 36] | – | – | – | −0.01
COCCCN1CC[C@@H](CNC(=O)c2cc(Cl)c(N)c3c2OC(C)(C)C3)[C@H](O)C1 (relative stereo) [Compound 39, trans-(−)-4-amino-5-chloro-2,3-dihydro-N-[[3-hydroxy-1-(3-methoxypropyl)-4-piperidinyl]methyl]-2,2-dimethyl-7-benzofurancarboxamide] | – | – | −0.43 | −0.53
N#CCN1CC[C@@H](CNC(=O)c2cc(Cl)c(N)c3c2OCCC3)[C@H](O)C1 (relative stereo) [Compound 76] | – | – | – | −0.18
CCCCN1CC[C@@H](CNC(=O)c2cc(Cl)c(N)c3c2OCCO3)[C@@H](O)C1.Cl.O (relative stereo) [Compound 54] | – | – | 0.04 | −0.28
Nc1c(Cl)cc(C(=O)NC[C@@H]2CCN(CCOCCO)C[C@H]2O)c2c1CCCO2.O=C(O)C(=O)O (relative stereo) [Compound 75] | – | – | −0.39 | −0.01
CC(=O)CCCN1CC[C@@H](CNC(=O)c2cc(Cl)c(N)c3c2OCCC3)[C@H](O)C1 (relative stereo) [Compound 80] | – | – | −0.11 | −0.51
CC(=O)CCCN1CC[C@H](CNC(=O)c2cc(Cl)c(N)c3c2OCC3)[C@H](O)C1 (relative stereo) [Compound 4, (cis)-4-amino-5-chloro-2,3-dihydro-N-[[3-hydroxy-1-(4-oxopentyl)-4-piperidinyl]methyl]-7-benzofurancarboxamide] | -21 | -8 | – | –
COCCCN1CC[C@@H](CNC(=O)c2cc(Cl)c(N)c3c2OCCO3)[C@H](O)C1 (relative stereo) [Compound 57] | – | – | −0.03 | −0.10
CCCCN1CC[C@@H](CNC(=O)c2cc(Cl)c(N)c3c2OCCO3)[C@H](O)C1 (relative stereo) [Compound 55, (trans)-8-amino-N-[(1-butyl-3-hydroxy-4-piperidinyl)methyl]-7-chloro-2,3-dihydro-1,4-benzodioxin-5-carboxamide] | -18 | -29 | – | –
